{"source": "patent US5470883A", "about": "(priority 1994, dated 1995)", "key": {"[1]": {"test_system": "mammary carcinoma in rats induced by DMBA", "conditions": "cited from earlier work"}, "[2]": {"test_system": "epinephrine vasoconstriction, central artery of the rabbit ear", "experiment": "Transcutaneous oxygen monitor assessment of distal peripheral oxygen tension after epinephrine injection around the central artery of the rabbit ear", "format": "in vivo, New Zealand adult white rabbits", "conditions": "for effect of pretreatment on epinephrine-induced fall in peripheral blood flow / vasoconstriction: pretreatment two days, then epinephrine, estradiol 0.1 mg/kg/day, tamoxifen 2.0 mg/kg/day", "method": "A study utilizing 18 New Zealand adult white rabbits was performed. […] This was injected through a 27 gauge needle directly surrounding the central artery of the rabbit ear. Distally peripheral tissue oxygen tension was assessed utilizing a precalibrated transcutaneous oxygen monitor. Measurements were taken prior to injection to maintenance of a steady state. If a steady state was not reached the experiment was discontinued and retried at a later time. Post-injection measurements were taken until the return to baseline levels or up to two hours post-injection. Measurements were taken at five minute intervals preinjection and at three minute intervals post-injection. Control injections utilized 0.1 cc. of intravenous saline solution.\nIn the second phase, six rabbits were used. The animals were pretreated with intravenous injections of estradiol (0.1 mg/kg/day) for two days.\nIn phase three, animals from the second group were treated with estradiol and tamoxifen was added (2.0 mg/kg/day) for two days after allowing three weeks for the original estradiol to wash out. Another group of six animals was pretreated with tamoxifen alone (2.0 mg/kg/day) for two days."}, "[3]": {"conditions": "humans; cited from earlier work"}, "[4]": {"test_system": "renal cortical necrosis", "conditions": "induced by estrogen plus vasopression; cited from earlier work"}, "[5]": {"conditions": "mild to moderate renal failure; cited from earlier work"}, "[6]": {"test_system": "breast cancer", "conditions": "cited from earlier work"}, "[7]": {"test_system": "perfused rat mesentary", "conditions": "cited from earlier work"}, "[8]": {"test_system": "tumor cultures without estrogen receptors", "conditions": "cited from earlier work"}, "[9]": {"conditions": "cited from earlier work"}, "[10]": {"conditions": "100 to 200 times the recommended daily dose; cited from earlier work"}, "[11]": {"test_system": "estrogen-dependent breast cancer cell cultures", "conditions": "cited from earlier work"}, "[12]": {"conditions": "single oral dose approximately 0.3 mg/kg"}}, "note": "Where a name gives a salt, the structure may show the parent alone. Read-outs that look alike come from different tables or passages of the source."}
{"molecule": "CC/C(=C(\\c1ccccc1)c1ccc(OCCN(C)C)cc1)c1ccccc1", "note": "[tamoxifen citrate, (Z)2-[4-(1,2-diphenyl-1-butenyl)phenoxy]-N, N-dimethylethanamine 2-hydroxy-1,2,3-propranetricarboxylate (1:1)]", "values": [{"measurement": "frequency of tumor development", "setting": "[1]; administered with DMBA", "value": "decreases the frequency of tumor development"}, {"measurement": "effect on DMBA-induced mammary carcinoma", "setting": "[1]; rats", "value": "inhibit or reverse mammary carcinoma in rats"}, {"measurement": "effect of pretreatment on epinephrine-induced fall in peripheral blood flow / vasoconstriction", "setting": "[2]", "value": "completely reversed the vasoconstrictive effects of epinephrine"}, {"measurement": "effect of pretreatment on epinephrine-induced fall in peripheral blood flow / vasoconstriction", "setting": "[2]; listed as tamoxifen (Nolvadex)", "value": "completely inhibited"}, {"measurement": "overdose cases", "setting": "[3]", "value": "no cases of tamoxifen citrate overdose have been reported in humans"}, {"measurement": "effect on development of renal cortical necrosis", "setting": "[4]", "value": "have an effect on the development of renal cortical necrosis"}, {"measurement": "dose adjustment in renal failure", "setting": "[5]", "value": "dose adjustments are not needed in mild to moderate renal failure"}, {"measurement": "anti-tumor effect at higher dose", "setting": "[6]; 40 mg per day, metastatic breast cancer to the lung", "value": "higher anti-tumor effect"}, {"measurement": "improvement at higher daily doses", "setting": "[6]; 80 mg daily", "value": "have not generally resulted in greater improvement"}, {"measurement": "delay of recurrence", "setting": "[6]; following total mastectomy and axillary dissection or segmental mastectomy, axillary dissection, and breast radiation, axillary node-negative breast cancer", "value": "effective in delaying the reoccurence"}, {"measurement": "delay of recurrence", "setting": "[6]; following total mastectomy and axillary dissection, post-menopausal women", "value": "effective in delaying reoccurence"}, {"measurement": "calcium antagonism", "setting": "[7]", "value": "calcium antagonist in perfused rat mesentary"}, {"measurement": "effect in tumor cultures", "setting": "[8]", "value": "no significant effect"}, {"measurement": "unchanged drug and hydroxylated metabolites, share of total excreted", "setting": "[9]; excreted mainly as conjugates", "value": 30, "unit": "%"}, {"measurement": "distribution half life", "setting": "[9]; human, in vivo", "value": "7 to 14", "unit": "h"}, {"measurement": "elimination half-life", "setting": "[9]; human, in vivo", "value": "greater than 7 days"}, {"measurement": "excretion in urine", "setting": "[9]; in vivo", "value": "only small amounts are excreted in the urine"}, {"measurement": "metabolism", "setting": "[9]; in vivo", "value": "metabolised in the liver"}, {"measurement": "absorption from the gastrointestinal tract", "setting": "[9]; oral", "value": "well-absorbed from the gastrointestinal tract"}, {"measurement": "excretion of radioactivity in the feces", "setting": "[9]; radiolabeled tamoxifen citrate, person", "value": "most of the radioactivity is slowly excreted in the feces with only small amounts appearing in the urine"}, {"measurement": "initial half-life", "setting": "[9]; [12]", "value": "7 to 14", "unit": "h"}, {"measurement": "peak blood level of total radioactivity", "setting": "[9]; [12]", "value": "0.06-0.14 micrograms/mL"}, {"measurement": "secondary peaks, time", "setting": "[9]; [12]", "value": "four"}, {"measurement": "time of peak blood level of total radioactivity", "setting": "[9]; [12]", "value": "4 to 7", "unit": "h"}, {"measurement": "overdose toxicity", "setting": "[10]", "value": "respiratory difficulties and convulsions"}, {"measurement": "cell reproduction", "setting": "[11]", "value": "inhibit cell reproduction"}]}
{"molecule": "CNC[C@H](O)c1ccc(O)c(O)c1", "note": "[epinephrine]", "values": [{"measurement": "decreased blood flow, % of the preinjection level", "setting": "[2]; epinephrine 0.1 cc, 1:50,000", "value": 50, "unit": "%"}, {"measurement": "tissue necrosis", "setting": "[2]; epinephrine 0.1 cc, 1:50,000", "value": "In no case was there any tissue necrosis"}]}
{"molecule": "C[C@]12CC[C@@H]3c4ccc(O)cc4CC[C@H]3[C@@H]1CC[C@@H]2O", "note": "[estradiol]", "values": [{"measurement": "effect of pretreatment on epinephrine-induced fall in peripheral blood flow / vasoconstriction", "setting": "[2]", "value": "statistically similar fall in the peripheral blood flow as compared to those animals treated with epinephrine alone"}]}
